Measurements published in US20230338564A1, “NEODEGRADER CONJUGATES” (Orum Therapeutics, Inc., priority 2020, published 2023).
Like-named read-outs stand apart in the source and are kept apart here.

How the values were obtained:
[1] = test system: EOL-1 cell line; assay: In vitro antiproliferation assay, General Procedure 2 (CCK-8); assay type: cell-based, human
Source text: (§1) Cell Culture: Cell lines were obtained from the American Type Culture Collection (ATCC, Manassas, VA, USA) or Deutsche Sammlung von Mikroorganismen und Zellkulturen (DSMZ, Braunschweig, Germany) and maintained according to the culturing conditions specified by ATCC or DSMZ. Cells were thawed out and maintained in culture for at least two passages before proceeding with experimental conditions.
(§2) Cytotoxicity assays: For adherent cell lines, the cells were dissociated with enzyme-free PBS-based cell dissociation buffer (Gibco, USA) and plated on tissue culture treated 96-well flat bottom polystyrene plates (Costar, Corning, USA) at appropriate cell densities depending on doubling time of the cells. 18 hours after plating, cells were treated with test articles at appropriate concentrations starting at 100 nM and diluted in 4-fold serial dilutions. For suspension cell lines, the cells were seeded on the same day of treatment and cells were treated as described above. Adherent cells were treated for 5 days and suspension cells were treated for 3 days. Cell proliferation was assessed using the Cell Counting Kit-8 (CCK-8, Dojindo Laboratories, Japan) and measurements were obtained using the Promega GloMax Discover plate reader (Promega, USA). Data were analyzed using GraphPad Prism software (GraphPad Software, San Diego, CA). All data points were obtained from technical triplicates and the experiments were validated using three biological replicates.

[2] = test system: Ramos (non-Hodgkins lymphoma) cell line; assay: In vitro antiproliferation assay, General Procedure 1 (WST-8); assay type: cell-based; conditions: Ramos cells; rituximab neoDegrader conjugates versus comparators; FIG. 13
Procedure: (§3) The ability of neoDegrader conjugates to inhibit cell growth was measured using in vitro anti-proliferation assay. […] Conjugates were diluted in complete cell growth medium using 4-fold serial dilutions and 100 µL was added per well. […] Viability of remaining cells was determined by colorimetric WST-8 assay (Dojindo Molecular Technologies, Inc., Rockville, MD, US). WST-8 was added to 10% of the final volume and plates were incubated at 37° C. in a humidified 5% CO2 incubator for 2-4 hours. Plates were analyzed by measuring the absorbance at 450 nm (A450) in a multi-well plate reader. Background A450 absorbance of wells with media and WST-8 only was subtracted from all values. The percent viability was calculated by dividing each treated sample value by the average value of wells with untreated cells. The percent viability value was plotted against the test sample concentration in a semi-log plot for each treatment. IC50 values were calculated automatically.

[3] = test system: BT-474 breast cancer cell line; assay: as above; assay type: cell-based; conditions: Homo sapiens, BT-474, read-out: IC50, BT-474, conjugates DAR 8, comparators DAR not given
Procedure: as §3

[4] = test system: SK-BR-3 breast cancer cell line; assay: as above; assay type: cell-based; conditions: SK-BR-3 cells; neoDegrader conjugates (DAR 8) versus comparators; FIGS. 7 and 8
Procedure: as §3

[5] = test system: BT-474 cell line; assay: In vitro antiproliferation assay, General Procedure 2 (CCK-8); assay type: cell-based; conditions: Homo sapiens, Breast, read-out: IC50, BT474
Source text: as §1, §2

[6] = test system: OCI-AML2 cell line; assay: as above; assay type: cell-based
Source text: as §1, §2

[7] = test system: Molp8 cell line; assay: as above; assay type: cell-based; conditions: Homo sapiens, MOLP-8; MM
Source text: as §1, §2

[8] = test system: NB-4 cell line; assay: as above; assay type: cell-based; conditions: Homo sapiens, Acute promyelocytic leukemia
Source text: as §1, §2

[9] = test system: LOVO cell line; assay: as above; assay type: cell-based; conditions: Homo sapiens, Colon
Source text: as §1, §2

[10] = test system: SKM-1 cell line; assay: as above; assay type: cell-based
Source text: as §1, §2

[11] = test system: Daudi cell line; assay: as above; assay type: cell-based; conditions: Homo sapiens, NHL
Source text: as §1, §2

[12] = test system: OCI-M1 cell line; assay: as above; assay type: cell-based; conditions: Acute myeloid leukemia
Source text: as §1, §2

[13] = test system: SU-DHL-8 cell line; assay: as above; assay type: cell-based; conditions: Homo sapiens, NHL
Source text: as §1, §2

[14] = test system: MV4-11 cell line; assay: as above; assay type: cell-based
Source text: as §1, §2

[15] = test system: SKOV3 cell line; assay: as above; assay type: cell-based; conditions: Homo sapiens, SK-OV-3; Ovarian
Source text: as §1, §2

[16] = test system: MOLM13 cell line; assay: as above; assay type: cell-based
Source text: as §1, §2

[17] = test system: U251MG cell line; assay: as above; assay type: cell-based; conditions: Homo sapiens, U-251; Brain
Source text: as §1, §2

[18] = test system: CMK cell line; assay: as above; assay type: cell-based; conditions: Homo sapiens, Acute megakaryocytic leukemia
Source text: as §1, §2

[19] = test system: SNU182 cell line; assay: as above; assay type: cell-based; conditions: Homo sapiens, SNU-182; Liver
Source text: as §1, §2

[20] = test system: PL-21 cell line; assay: as above; assay type: cell-based; conditions: Acute myeloid leukemia
Source text: as §1, §2

[21] = test system: HL-60 cell line; assay: as above; assay type: cell-based
Source text: as §1, §2

[22] = test system: KE39 cell line; assay: as above; assay type: cell-based; conditions: Gastric
Source text: as §1, §2

[23] = test system: ML-2 cell line; assay: as above; assay type: cell-based
Source text: as §1, §2

[24] = test system: OCI-AML4 cell line; assay: as above; assay type: cell-based
Source text: as §1, §2

[25] = test system: JHUEM3 cell line; assay: as above; assay type: cell-based; conditions: Endometrial
Source text: as §1, §2

[26] = test system: OCI-M2 cell line; assay: as above; assay type: cell-based; conditions: Acute myelocytic leukemia
Source text: as §1, §2

[27] = test system: THP-1 cell line; assay: as above; assay type: cell-based; conditions: Homo sapiens, AML
Source text: as §1, §2

[28] = test system: THLE2 cell line; assay: as above; assay type: cell-based; conditions: THLE-2; Human liver normal
Source text: as §1, §2

[29] = test system: SK-BR-3 cell line; assay: as above; assay type: cell-based; conditions: Homo sapiens, Breast, read-out: IC50, SKBR3
Source text: as §1, §2

[30] = test system: AGS cell line; assay: as above; assay type: cell-based; conditions: Homo sapiens, Gastric
Source text: as §1, §2

[31] = test system: RPMI7951 cell line; assay: as above; assay type: cell-based; conditions: Homo sapiens, RPMI-7951; Skin
Source text: as §1, §2

[32] = test system: NCI-N87 gastric cancer cell line; assay: In vitro antiproliferation assay, General Procedure 1 (WST-8); assay type: cell-based; conditions: NCI-N87 cells; neoDegrader conjugates (DAR 8) versus comparators; FIGS. 16 and 17
Procedure: as §3

[33] = test system: HL-60 (acute myeloid leukemia) cell line; assay: as above; assay type: cell-based; conditions: AML; conjugates DAR 8, Mylotarg DAR not given
Procedure: as §3

[34] = test system: OCI-AML-6 cell line; assay: In vitro antiproliferation assay, General Procedure 2 (CCK-8); assay type: cell-based; conditions: leukemia, acute myeloid leukemia
Source text: as §1, §2

[35] = test system: OCI-AML-5 cell line; assay: as above; assay type: cell-based; conditions: leukemia, acute myeloid leukemia
Source text: as §1, §2

[36] = test system: AML-193 cell line; assay: as above; assay type: cell-based; conditions: leukemia, acute monocytic, monocyte
Source text: as §1, §2

[37] = test system: HNT-34 cell line; assay: as above; assay type: cell-based; conditions: leukemia, acute myeloid leukemia
Source text: as §1, §2

[38] = test system: OCI-AML-1 cell line; assay: as above; assay type: cell-based; conditions: leukemia, acute myeloid leukemia
Source text: as §1, §2

[39] = test system: F-36P cell line; assay: as above; assay type: cell-based; conditions: leukemia, myelodysplastic syndrome
Source text: as §1, §2

[40] = test system: Kasumi-6 cell line; assay: as above; assay type: cell-based; conditions: leukemia, acute myeloid, myeloblast
Source text: as §1, §2

[41] = test system: SKNO-1 cell line; assay: as above; assay type: cell-based; conditions: leukemia, acute myeloid leukemia
Source text: as §1, §2

[42] = test system: PLB-985 cell line; assay: as above; assay type: cell-based; conditions: leukemia, acute myeloid leukemia (derivative of HL-60)
Source text: as §1, §2

[43] = test system: Kopn-8 cell line; assay: as above; assay type: cell-based; conditions: leukemia, B cell precursor leukemia
Source text: as §1, §2

[44] = Homo sapiens, EOL1, Acute myeloid leukemia, read-out: IC50, EOL-1
[45] = Homo sapiens, OCI-AML2, Acute myeloid leukemia, read-out: IC50, OCI-AML2
[46] = Homo sapiens, SKM-1, Acute myeloid leukemia, read-out: IC50, SKM-1
[47] = Homo sapiens, MV4-11, Biphenotypic B myelomonocytic leukemia, read-out: IC50, MV4-11
[48] = Homo sapiens, MOLM-13, AML, read-out: IC50, MOLM13
[49] = Homo sapiens, HL-60, AML, read-out: IC50, HL-60
[50] = Homo sapiens, ML-2, Acute myelomonocytic leukemia, read-out: IC50, ML-2
[51] = Acute myeloid leukemia, read-out: IC50, OCI-AML4

Molecule	IC50 [1, 44] [M]	anti-proliferative activity compared, in words [4]	IC50 [5] [nM]	IC50 [6, 45] [M]	IC50 [7] [nM]	IC50 [8] [nM]	IC50 [9] [nM]	IC50 [10, 46] [M]	IC50 [11] [nM]	IC50 [12] [nM]	IC50 [13] [nM]	IC50 [14, 47] [M]	IC50 [15] [nM]	IC50 [16, 48] [M]	IC50 [17] [nM]	IC50 [18] [nM]	IC50 [19] [nM]	IC50 [20] [nM]	IC50 [21, 49] [M]	IC50 [33] [nM]	also measured
CNc1ccccc1NC(=O)NCc1ccc2c(c1)CN(C1CCC(=O)NC1=O)C2=O (stereo not shown) [Compound P4, 3-[[2-(2,6-dioxopiperidin-3-yl)-1-oxo-3H-isoindol-5-yl]methyl]-1-[2-(methylamino)phenyl]urea]	1.88e-09	significantly less active	2.9	> 1e-06	7.42	2.63	119	3.77e-09	14.3	124	19.8	1.91e-09	138	9.5e-09	46	1000	13	2.28	5.45e-09		antiproliferative activity compared, in words [2]: less active; IC50 [3]: 2.9 nM; IC50 [22]: 119 nM; IC50 [23, 50]: 1.27e-09 M; IC50 [24, 51]: 1.69e-08 M; IC50 [25]: 58.6 nM; IC50 [26]: 20.9 nM; IC50 [27]: 85 nM; IC50 [28]: 6.27 nM; IC50 [29]: 64.6 nM; IC50 [30]: 650 nM; IC50 [31]: 30.2 nM
O=C1CCC(N2Cc3cc(CNC(=O)Nc4ccc(CCO)c(Cl)c4)ccc3C2=O)C(=O)N1 (stereo not shown) [Compound P3, 1-(3-chloro-4-(2-hydroxyethyl)phenyl)-3-((2-(2,6-dioxopiperidin-3-yl)-1-oxoisoindolin-5-yl)methyl)urea]	7.33e-10		6.37	2.91e-08	6.63	2.2	750	1.89e-09	9.17	104	18.4	7.83e-10	99.7	8.5e-09	35.8	12.3	8.86	2.09	3.02e-09		IC50 [22]: 650 nM; IC50 [23, 50]: 5.87e-10 M; IC50 [24, 51]: 7e-09 M; IC50 [25]: 37.4 nM; IC50 [26]: 21.1 nM; IC50 [27]: 65 nM; IC50 [28]: 59.9 nM; IC50 [29]: 35 nM; IC50 [30]: 650 nM; IC50 [31]: 26 nM
Pertuzumab [reference compound]		significantly less active																			anti-proliferative activity compared, in words [32]: significantly less active
Mylotarg: approved agent, known antibody drug conjugate MYLOTARG																				0.0011	IC50 ([1]; Leukemia, Human eosinophilic leukaemia, read-out: IC50 (M), EoL-1): 6.87e-11 M; IC50 ([6]; leukemia, acute myeloid leukemia, read-out: IC50 (M), OCI-AML-2): 3.94e-11 M; IC50 [34]: > 20 nM; IC50 [35]: 0.0783 nM; IC50 [36]: > 20 nM; IC50 ([10]; leukemia, myelodysplastic syndrome, read-out: IC50 (M), SKM-1): 2.24e-10 M; IC50 [37]: 3.77 nM; IC50 [38]: 0.224 nM; IC50 [39]: > 20 nM; IC50 [40]: > 20 nM; IC50 ([14]; leukemia, biphenotypic B myelomonocytic, read-out: IC50 (M), MV-4-11): 5.32e-11 M; IC50 ([16]; leukemia, acute,myeloid,leukemia suspension, read-out: IC50 (M), Molm-13): 2.7e-11 M; IC50 [41]: 13.4 nM; IC50 ([21]; leukemia, acute promyelocytic, read-out: IC50 (M), HL-60): 3.26e-10 M; IC50 [42]: 7.14 nM; IC50 ([23]; leukemia, acute myelomonocytic leukemia, read-out: IC50 (M), ML-2): 5.02e-11 M; IC50 ([24]; leukemia, acute myeloid leukemia, read-out: IC50 (M), OCI-AML-4): 2.37e-10 M; IC50 [43]: 0.687 nM
Lintuzumab IgG1-Compound (Ia) (conjugate, chains of the INN, looked up, IgG1 conjugated to Compound (Ia)) VH: QVQLVQSGAEVKKPGSSVKVSCKASGYTFTDYNMHWVRQAPGQGLEWIGYIYPYNGGTGYNQKFKSKATITADESTNTAYMELSSLRSEDTAVYYCARGRPAMDYWGQGTLVTVSS VL: DIQMTQSPSSLSASVGDRVTITCRASESVDNYGISFMNWFQQKPGKAPKLLIYAASNQGSGVPSRFSGSGSGTDFTLTISSLQPDDFATYYCQQSKEVPWTFGQGTKVEIK																				0.012	
Lintuzumab IgG1-Compound (Id) (conjugate, chains of the INN, looked up, IgG1 conjugated to Compound (Id)) VH: QVQLVQSGAEVKKPGSSVKVSCKASGYTFTDYNMHWVRQAPGQGLEWIGYIYPYNGGTGYNQKFKSKATITADESTNTAYMELSSLRSEDTAVYYCARGRPAMDYWGQGTLVTVSS VL: DIQMTQSPSSLSASVGDRVTITCRASESVDNYGISFMNWFQQKPGKAPKLLIYAASNQGSGVPSRFSGSGSGTDFTLTISSLQPDDFATYYCQQSKEVPWTFGQGTKVEIK																				> 0.05	
